We go through one compound from patent US8399468B2, “Octahydro-pyrrolo[3,4-B]pyrrole derivatives” (Abbott Laboratories, priority 2006, dated 2013).

The conditions of this data set: compared with the 2-{4′-[(3aR,6aR)-5-methylhexahydropyrrolo[3,4-b]pyrrol-1(2H)-yl]-1,1′-biphenyl-4-yl}pyridazin-3(2H)-one compound.

`CN1C[C@H]2CCN(c3ccc(-c4ccc(-n5ncccc5=O)cc4)cc3)[C@H]2C1.O.O=C(O)C(O)C(O)C(=O)O` [L-tartrate monohydrate Form A salt, 2-{4′-[(3aR,6aR)-5-Methylhexahydropyrrolo[3,4-b]pyrrol-1(2H)-yl]-1,1′-biphenyl-4-yl}pyridazin-3(2H)-one L-tartrate monohydrate Form A]: the relative oxidative stability entry was “better relative oxidative stability”.
